Tested on: Tetranychus cinnabarinus
Test: acaricidal activity test, spraying kidney bean seedlings inoculated with mites
Assay type: in vivo
Conditions: sprayed on kidney bean seedlings, living mites counted after 72 hours, 25° C.
Method: This test example tested the acaricidal activity of the compounds prepared above, in particular against Tetranychus cinnabarinus, and a specific test process was as follows: • (1) compounds to be tested were dissolved with acetone, and the resulting solution was diluted with a 0.1 wt % Tween 80 aqueous solution to a desired concentration (see test examples 1-A to 1-D below in detail) to prepare medicaments, with the acetone content of not more than 5 wt %; • (2) one real leaf was removed from kidney bean seedlings grown to two real leaves, and the number of mites inoculated was investigated 24 hours after inoculation of Tetranychus cinnabarinus (the number of Tetranychus cinnabarinus inoculated for each kidney bean seedling was 50-150). The whole plants of three kidney bean seedlings were separately sprayed with the medicaments prepared in the step (1) by using a hand-held sprayer (the spray amount was 0.5 mL per plant). After the treatment, the kidney bean seedlings were placed in a constant temperature observation room (25° C.) for observation, the number of living mites was investigated after 72 hours, and the lethality was calculated: Lethality (%)=(the number of mites inoculated−the number of living mites after the medicaments are sprayed)/the number of mites inoculated×100.

SMILES	Lethality (6.25 mg/L) [%]	Lethality (25 mg/L) [%]	Lethality (100 mg/L) [%]
CCS(=O)(=O)n1c(-c2cc(Br)cc(OC(F)(F)F)c2)nc2ccccc21 [Compound 1-186]	100	100	100
CCS(=O)(=O)n1c(-c2ccccc2F)nc2ccccc21 [KC2, reference compound]	–	49	98
CS(=O)(=O)n1c(-c2cc(Cl)cc(C(F)(F)F)c2)nc2ccccc21 [Compound 1-133]	99	100	100
CCS(=O)(=O)n1c(-c2ccccc2)nc2ccccc21 [KC1, reference compound]	–	52	82
CCS(=O)(=O)n1c(-c2ccccc2Cl)nc2ccccc21 [KC3, reference compound]	–	70	88
CCS(=O)(=O)n1c(-c2cc(C(F)(F)F)cc(C(F)(F)F)c2)nc2cc(Cl)c(Cl)cc21 [Compound 1-265]	100	100	100
CCCCS(=O)(=O)n1c(-c2cc(C(F)(F)F)cc(C(F)(F)F)c2)nc2ccccc21 [Compound 1-255]	91	100	100
CCS(=O)(=O)n1c(-c2cc(C(F)(F)F)cc(C(F)(F)F)c2)nc2cc(F)c(F)cc21 [Compound 1-257]	98	100	100
CCS(=O)(=O)n1c(-c2cc(Cl)cc(Cl)c2)nc2ccccc21 [KC6, reference compound]	–	86	100
CCS(=O)(=O)n1c(-c2ccc(F)c(C(F)(F)F)c2)nc2cc(F)c(F)cc21 [Compound 1-56]	95	100	100
CCS(=O)(=O)n1c(-c2ccc(Cl)c(C(F)(F)F)c2)nc2ccccc21 [Compound 1-28]	97	100	100
CCS(=O)(=O)n1c(-c2cc(Br)cc(C(F)(F)F)c2)nc2ccccc21 [Compound 1-214]	97	100	100
CCS(=O)(=O)n1c(-c2ccc(Cl)c(C(F)(F)F)c2)nc2cc(F)c(F)cc21 [Compound 1-57]	92	100	100
CCS(=O)(=O)n1c(-c2cc(C#N)cc(C(F)(F)F)c2)nc2ccccc21 [Compound 1-218]	98	99	100
CCS(=O)(=O)n1c(-c2cc([N+](=O)[O-])cc(C(F)(F)F)c2)nc2ccccc21 [Compound 1-235]	99	99	100
CCS(=O)(=O)n1c(-c2ccc(F)cc2)nc2ccccc21 [KC5, reference compound]	–	40	66
CCS(=O)(=O)n1c(-c2ccc(F)c(C(F)(F)F)c2)nc2ccccc21 [Compound 1-27]	90	100	100
CCS(=O)(=O)n1c(-c2cc(C(F)(F)F)cc(C(F)(F)F)c2)nc2ccccc21 [Compound 1-47]	99	100	100
CCS(=O)(=O)n1c(-c2cc(Cl)cc(OC(F)(F)F)c2)nc2ccccc21 [Compound 1-239]	100	100	100
CCCS(=O)(=O)n1c(-c2cc(C(F)(F)F)cc(C(F)(F)F)c2)nc2ccccc21 [Compound 1-254]	97	100	100
CCS(=O)(=O)n1c(-c2cc(Cl)cc(C(F)(F)F)c2)nc2ccccc21 [Compound 1-213]	99	100	100
CCS(=O)(=O)n1c(-c2cc(F)cc(C(F)(F)F)c2)nc2ccccc21 [Compound 1-174]	98	98	100
CCS(=O)(=O)n1c(-c2ccc(Cl)cc2)nc2ccccc21 [KC4, reference compound]	–	57	37
